{
  "source": "patent EP0760375A1",
  "about": "“ANTITUMOR INDOLOPYPROLOCARBAZOLE DERIVATIVE” (BANYU PHARMACEUTICAL CO., LTD., priority 1994, dated 1995)",
  "key": {"[1]": {"system": "human gastric cancer cells (MKN-45)", "test": "Growth-inhibiting activity (CTX) against cancer cells, Thiazoyl Blue assay", "format": "cell-based", "conditions": "MKN-45 cells, 72 hours incubation with test compound, absorbance at 560 nm", "protocol": "(§1) 50 µl of a cell culture medium (RPMI-1640 medium containing 10% bovine fetal serum) containing 1 x 10^3 mouse leukemia cells (P388), human gastric cancer cells (MKN-45), human pulmonary cancer cells (PC-13) or human rectal cancer cells (DLD-1) was pipetted into the wells of a 96-well microplate, and incubated at 37°C under 5% CO2 for 24 hours. Then, 50 µl of a test solution containing each test compound was added, and the culture medium was further incubated at 37°C under 5% CO2 for 72 hours. After 10 µl of 0.5% Thiazoyl Blue was added to the culture medium, an enzyme reaction was carried out by incubating the culture medium at 37°C under 5% CO2 for 2 hours. After the reaction was stopped by the addition of 20% sodium dodecyl sulfate (SDS), the culture medium was further incubated at 37°C for 16 hours to dissolve the pigment so formed. Then, the absorbances at 560 nm were measured and compared with that obtained in a control group. The compound of the formula [drawing 7] was used as the control compound."}, "[2]": {"system": "human pulmonary cancer cells (PC-13)", "test": "Growth-inhibiting activity (CTX) against cancer cells, Thiazoyl Blue assay", "format": "cell-based", "conditions": "PC-13 cells, 72 hours incubation with test compound, absorbance at 560 nm", "protocol": "as §1"}, "[3]": {"system": "human rectal cancer cells (DLD-1)", "test": "Growth-inhibiting activity (CTX) against cancer cells, Thiazoyl Blue assay", "format": "cell-based", "conditions": "DLD-1 cells, 72 hours incubation with test compound, absorbance at 560 nm", "protocol": "as §1"}, "[4]": {"system": "mouse leukemia cells (P388)", "test": "Growth-inhibiting activity (CTX) against cancer cells, Thiazoyl Blue assay", "format": "cell-based", "conditions": "72 hours incubation with test compound, absorbance at 560 nm", "protocol": "as §1"}, "[5]": {"system": "human gastric cancer MKN-45", "test": "Effect on human gastric cancer MKN-45 solid tumor transplanted under the skin of mice", "format": "in vivo", "conditions": "Mus musculus, MKN-45, iv, total dose at which tumor growth was inhibited by 75%, injection into the caudal vein, read-out: GID75 (mg/kg total)", "protocol": "A MKN-45 solid tumor which had previously been grown by transplantation under the skin of a nude mouse was minced, and 3 mm cubes of the tumor were transplanted under the skin of mice used for this test. Starting from the time when the transplanted tumor grew to 0.3 cm^3, a treatment was carried out by injecting a dose of each test drug into the caudal vein of the mice, once a day, for 5 consecutive days and, after two days' pause, injecting the test drug for 5 days (treatment schedule: 5/w x 2) or four times at intervals of 3 or 4 days (treatment schedule: 2/w x 2). Twenty or thirty-two days after the start of the treatment, the larger diameter (L) and smaller diameter (W) of the tumor were measured, and its volume (V) was determined ( […] [formula] ). The degree of tumor growth inhibition was calculated from this volume, and the total dose at which the tumor growth was inhibited by 75% (GID75, mg/kg) was determined."}},
  "note": "Read-outs that look alike come from different tables or passages of the source.",
  "data": [
    {"compound": "O=C1c2c(c3c4cccc(O)c4n([C@@H]4O[C@H](CO)[C@@H](O)[C@H](O)[C@H]4O)c3c3[nH]c4c(O)cccc4c23)C(=O)N1NC(CO)CO", "note": "[Compound [I-A]]", "values": [
      {"measurement": "IC50", "setting": "[1]", "value": 0.29, "unit": "µM"},
      {"measurement": "IC50", "setting": "[2]", "value": 0.34, "unit": "µM"},
      {"measurement": "IC50", "setting": "[3]", "value": 0.67, "unit": "µM"},
      {"measurement": "IC50", "setting": "[4]", "value": 0.037, "unit": "µM"},
      {"measurement": "ED75", "setting": "[5]; treatment schedule 5/w x 2", "value": 27, "unit": "mg/kg"}
    ]},
    {"compound": "O=C1c2c(c3c4ccc(O)cc4n([C@@H]4O[C@H](CO)[C@@H](O)[C@H](O)[C@H]4O)c3c3[nH]c4cc(O)ccc4c23)C(=O)N1NC(CO)CO", "note": "[Compound [I-B]]", "values": [
      {"measurement": "IC50", "setting": "[1]", "value": 0.011, "unit": "µM"},
      {"measurement": "IC50", "setting": "[2]", "value": 0.035, "unit": "µM"},
      {"measurement": "IC50", "setting": "[3]", "value": 0.1, "unit": "µM"},
      {"measurement": "IC50", "setting": "[4]", "value": 0.002, "unit": "µM"},
      {"measurement": "ED75", "setting": "[5]; treatment schedule 2/w x 2", "value": 3, "unit": "mg/kg"}
    ]},
    {"compound": "O=CNN1C(=O)c2c(c3c4cccc(O)c4n([C@@H]4O[C@H](CO)[C@@H](O)[C@H](O)[C@H]4O)c3c3[nH]c4c(O)cccc4c23)C1=O", "note": "[Control compound, reference compound]", "values": [
      {"measurement": "IC50", "setting": "[1]", "value": 0.5, "unit": "µM"},
      {"measurement": "IC50", "setting": "[2]", "value": 1.4, "unit": "µM"},
      {"measurement": "IC50", "setting": "[3]", "value": 73, "unit": "µM"},
      {"measurement": "IC50", "setting": "[4]", "value": 0.12, "unit": "µM"},
      {"measurement": "ED75", "setting": "[5]; treatment schedule 5/w x 2", "value": 170, "unit": "mg/kg"}
    ]}
  ]
}
